Assays:
[1] = Precipitation of TDF particulates with stabiliser combinations (Example 5); assay type: physicochemical; conditions: Stabiliser B combined with Stabiliser A AOT, procedure of Example 2
Experimental: 800 μL of the stabiliser-containing dichloromethane solution was pipetted into a 4 mL volume glass vial. 200 μL of TDF-containing methanol solution was rapidly pipetted into the same vial, which was then sealed and briefly shaken. A white, hazy suspension formed instantaneously. […] The TDF loading of the particulates was altered by changing the concentration of the methanol and dichloromethane solutions prior to mixing. It should be noted that this approach allows for different volumes of the TDF particulate suspensions to be produced simply by increasing the volumes added, so long as the 4:1 ratio of dichloromethane to methanol is maintained, this allows for fine control of the concentration of the TDF particles dispersed in the oil of the liquid composition.
Following the procedure described in Example 2, the following combinations of stabilisers were used to form TDF particulates (see table 7 below).

[2] = Solubility of TDF in solvents and of TDF particulates in oils; assay type: physicochemical
From the text: Therefore methanol was used for the first solvent. TDF is not soluble in dichloromethane, which was used as the second solvent.
A selection of biocompatible natural oils were used to form liquid compositions. These oils were selected as the TDF particulates were insoluble in them and the oils could be dissolved into the mixed solvent system. The oils used were peanut oil, soy bean oil, sesame oil and safflower oil.

## propylene glycol monolaurate (type I) [Lauroglycol ™ FCC]
[1]
  Successful Precipitation: Yes

## polyglyceryl-3 diisostearate [Plurol ™ diisosteraque]
[1]
  Successful Precipitation: Yes

## polyethylene glycol sorbitan monooleate [Tween ™ 80]
[1]
  Successful Precipitation: Yes

## polyoxyethylenesorbitan monopalmitate [Tween ™ 40]
[1]
  Successful Precipitation: Yes

## CCCCCCCC/C=C\CCCCCCCC(=O)OCC(O)CO (stereo not drawn) [Pecol ™, glycerol mono-oleate]
[1]
  Successful Precipitation: Yes

## propylene glycol monopalmitostearate [Monosteol ™]
[1]
  Successful Precipitation: Yes

## propylene glycol monolaurate (type II) [Lauroglycol ™ 90]
[1]
  Successful Precipitation: Yes

## CC(C)OC(=O)OCOP(=O)(CO[C@H](C)Cn1cnc2c(N)ncnc21)OCOC(=O)OC(C)C.O=C(O)/C=C/C(=O)O [TDF, tenofovir disoproxil fumerate]
[2]; dichloromethane
  solubility in dichloromethane: not soluble
[2]; methanol, organic solvent or mixture
  solubility: ≤ 80 mg/mL

## CCCCC/C=C\C/C=C\CCCCCCCC(=O)OCC(O)CO (stereo not drawn) [Maisine ™ 35-1, glyceryl monolinoleate]
[1]
  Successful Precipitation: Yes

## sorbitan oleate [Span ™ 80]
[1]
  Successful Precipitation: Yes

## propylene glycol monocaprylate (type I) [Capryol ™ PGMC]
[1]
  Successful Precipitation: Yes

## polyglyceryl-6 dioleate [Plurol ™ Olique]
[1]
  Successful Precipitation: Yes

## polyoxyethylene (2) stearyl ether [Brij ™ S2]
[1]
  Successful Precipitation: Yes

## propylene glycol monocaprylate (type II) [Capryol ™ 90]
[1]
  Successful Precipitation: Yes

— patent publication US20200114012A1, “METHOD FOR PRODUCING A LIQUID COMPOSITION” (The University of Liverpool, priority 2017, published 2020)
